Reference: patent US10912761B2, “Methods and compositions involving RAD51 inhibitors” (The University of Chicago, priority 2012, dated 2021)
pIC50: −log10 of the molar value. “Also recorded” adds a separate entry of the source. Each block holds one compound with its values, some of them ahead of it.

Legend:
[1] = Glutathione stability experiments (HPLC); assay type: physicochemical; details: L-glutathione 5 mol equiv, DMSO, 37° C., hourly HPLC; up to 24 hours
Method: FIG. 1. Reaction of RI-1, RI-2, and 9b with glutathione. Glutathione is a tripeptide that contains a nucleophilic sulfhydryl group. Glutathione may react irreversibly with a Michael acceptor compound containing a suitable leaving group at the 4-position.
Compound (10 mg) and L-glutathione (5 mol equiv) were placed in a round-bottomed flask under argon and dissolved in DMSO (1 mL). The reaction was heated to 37° C. and stirred. Aliquots of the reaction mixture were removed every hour, including one at t=0 min, and analyzed by HPLC. Ratio of substrate and glutathione adduct was recorded and the expected glutathione adduct was then identified using mass spectrometry

[2] = tested on: HR repair in HEK293 cells (DR-GFP reporter); test: Quantification of HR efficiency in DR-GFP reporter cells; assay type: cell-based, human; details: 24 hours
Method: (§1) FIG. 3. Relative DNA repair efficiencies. […] Reporter-containing HEK293 cells were electroporated with an I-SceI endonuclease-expressing plasmid, incubated with compounds as indicated for 24 hours, and subjected to FACS analysis 24 hours thereafter. […] The reporter construct that measures HR repair consists of two non-functional copies of green fluorescence protein (GFP), one of which is interrupted by an I-SceI endonuclease site. Induction of a DNA break at the I-SceI site can lead to repair by homologous gene conversion that generates a functional copy of GFP (Pierce et al., 1999). A second parallel assay makes use of cells that contain a different reporter that measures single-strand annealing (SSA), which is an alternative method of re-ligating DNA when HR cannot be completed. SSA efficiency is known to be elevated in situations where RAD51 function has been disrupted (Mansour et al., 2008, Stark et al., 2004, and Bennardo et al., 2008). […] HEK293 cells stably transfected with the DR-GFP or SA-GFP reporters were provided by Jeremy Stark (Bennardo et al., 2008). 0.5-1.0×10^7 cells at 80% confluence were electroporated with 30-60 μg pCβASce (or pCAGGS) in 4 mm cuvettes, using the following settings: 240-350 V, 975 μF. […] Compounds were removed and cells were incubated for an additional 24 hours in normal media, following which they were analyzed with a Becton-Dickinson FACScan. […]

[3] = tested on: SSA in HEK293 cells (SA-GFP reporter); test: Quantification of SSA efficiency in SA-GFP reporter cells; assay type: cell-based, human; details: 24 hours
Method: as §1

HEK293 cells = test: Cell toxicity assay: sensitization to MMC; assay type: cell-based, human; details: 24 hours MMC, then 24 hours compound, 5-7 days drug-free
Text: Cells were then allowed to grow in drug-free media for an additional 5-7 days. Average survival for each condition is normalized to the MMC-free control of that condition.

human RAD51 protein [4] = target: T1, human RAD51 protein (Homo sapiens, UniProt Q06609); test: FP-based DNA binding assay (RAD51 binding to fluorescently labeled ssDNA); assay type: biochemical; set-up: made in house; details: for time dependence of inhibitory activity on the DNA binding activity of RAD51: compound added after the protein has been released from the beads (FIG. 2B)
T1 sequence (Q06609 1-339): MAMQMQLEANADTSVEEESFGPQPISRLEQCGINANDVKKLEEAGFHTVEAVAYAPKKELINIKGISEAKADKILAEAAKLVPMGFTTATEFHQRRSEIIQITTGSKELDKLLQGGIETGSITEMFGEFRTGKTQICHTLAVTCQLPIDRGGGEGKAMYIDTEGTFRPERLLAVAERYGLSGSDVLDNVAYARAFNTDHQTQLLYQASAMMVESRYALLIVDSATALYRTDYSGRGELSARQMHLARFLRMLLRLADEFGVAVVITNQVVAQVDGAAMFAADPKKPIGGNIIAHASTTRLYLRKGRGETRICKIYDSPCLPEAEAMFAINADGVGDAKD
Method: The synthesized compounds were tested for biological activity in a two-stage manner. They were first evaluated for their ability to inhibit the binding of human RAD51 protein to ssDNA. This primary assay utilizes a fluorescence polarization (FP) based method that involves incubation of purified RAD51 protein with oligonucleotides, which are end-labeled with a fluorescent tag. The binding of RAD51 to this substrate ssDNA is quantified as a function of polarization of light emitted by the fluorescent tag. Chemical analogs were then tested further using secondary cell-based assays. Since cell lethality from RI-1 is thought to be a function of cellular RAD51 inhibition for RI-1, LD50 values were used as a surrogate measurement of in vivo activity against RAD51 in cells. This cell-based assay was also simultaneously utilized to evaluate for compound-induced sensitization of cells to the cross-linking chemotherapeutic drug MMC, thereby confirming that toxic effects are secondary to HR inhibition.
Human RAD51 protein was prepared as previously described (Budke et al., 2012). RAD51 was incubated with 100 nM (nucleotide concentration) of a 45-mer oligo-dT 5′ Alexa 488 end-labeled substrate. Binding was measured as a function of fluorescence polarization (FP) of the Alexa 488 tag. 50 μl reactions were performed in 20 mM HEPES, pH 7.5, 2 mM ATP, 10 mM MgCl2, 30 mM NaCl, 2% glycerol, 250 μM BSA, and 4% DMSO. Black polystyrene flat-bottom 384-well reaction plates were read using a Tecan Infinite F200 Pro plate reader, equipped with 485(20)/535(25) FP filters. For experiments used to determine IC50 values, RAD51 concentrations (typically 190-290 nM) were selected to generate FP signal of 50-80% maximum in the absence of any inhibitory compound. Reported IC50 values represent the mean result of at least three replicate wells, and reported errors connote standard deviation.

human RAD51 protein [5] = target: T1, human RAD51 protein; test: DNA binding competition assay: bead-immobilized RAD51 treated with compound, washed, cleaved, tested by FP (reversible vs. irreversible inhibition); details: washed extensively, protein cleaved from beads (FIG. 2C)
Method: Reversible vs. irreversible inhibition of RAD51 by compound was tested by incubating compounds with RAD51 while still attached to beads and prior to washing. […] Reversible vs. irreversible inhibition of RAD51. Biotinylated RAD51 was immobilized on streptavidin polyacrylamide beads. The RAD51-coated beads were incubated with compound and subsequently washed extensively to remove any compound that was not covalently attached. The treated protein was subsequently cleaved from the beads and tested for DNA binding activity using our standard FP-based assay.
Tagged RAD51 was immobilized on streptavidin-conjugated polyacrylamide beads (Ultralink, Pierce) and incubated for 30 min at 37° C. with candidate compounds in 20 mM HEPES, pH 7.5, 30 mM NaCl, 2% glycerol, 4% DMSO. The polyacrylamide beads were then washed twice with ice-cold wash buffer (20 mM Tris-HCl, pH 8.0, 300 mM NaCl) containing 4% DMSO and then once with ice-cold wash buffer without DMSO. RAD51 protein was subsequently eluted from beads with TEV protease (gift from Phoebe Rice) and analyzed for DNA binding activity using the above FP-based DNA binding assay.

immortalized human cells = test: MMP-1-60 toxicity to immortalized human cells with or without pre-incubation in media; assay type: cell-based; details: 4 hours of pre-incubation with tissue culture media vs. no pre-incubation
Method: FIGS. 6A-6B: A. ssDNA binding activity of RAD51 in response to RAD51 antagonists. […] B. MMP-1-60 toxicity to immortalized human cells.
HEK293 cells were plated into 96-well tissue culture plates at a density of 300 cells per well in the presence or absence of 50 nM MMC (Ben Venue Laboratories) for 24 hours at 37° C., 5% CO2. Media was subsequently replaced with fresh media containing 0.5% DMSO plus a candidate compound for an additional 24 hours. Compounds were then removed, and cultures were allowed to grow to a 50-70% confluence. Average survival from at least three replicates was measured using CellGlo reagent (Promega) or via a previously described sulforhodamine B method (Jayathilaka et al., 2008).

- reaction with glutathione [1]: no reactivity toward glutathione
- pIC50 (human RAD51 protein [4]; RAD51 binding to ssDNA, FP, read-out: IC50 in the standard DNA binding assay): 4.35
- time dependence of inhibitory activity on the DNA binding activity of RAD51 (human RAD51 protein [4]): no time-dependent increase
Structure (SMILES): COc1ccc(C2=C(N3CCOCC3)C(=O)N(c3ccc(Cl)c(Cl)c3)C2=O)cc1 [RI-2, 1-(3,4-Dichloro-phenyl)-3-(4-methoxy-phenyl)-4-morpholin-4-yl-pyrrole-2,5-dione]
- HR repair efficiency ([2]; 60 μM): very similar effects; also recorded: inhibition of HR
- SSA efficiency ([3]; 60 μM): very similar effects; also recorded: stimulation of SSA
- sensitization to cross-linking chemotherapy (MMC) (HEK293 cells): sensitizes human cells to cross-linking chemotherapy
- DNA binding activity of RAD51 treated with compound prior to washing (human RAD51 protein [5]; concentrations up to 240 μM): no measurable loss of DNA binding activity

- reaction with glutathione [1]: reduced glutathione reactivity
- time dependence of inhibitory activity on the DNA binding activity of RAD51 (human RAD51 protein [4]): time-dependent
- DNA binding activity of RAD51 treated with compound prior to washing (human RAD51 protein [5]; 10 μM compound): significantly inactivated
Structure (SMILES): O=C1C(Cl)=C(N2CCOCC2)C(=O)N1c1ccc(Cl)c(Cl)c1 [RI-1, 1-(3,4-Dichlorophenyl)-3-chloro-4-morpholino-1H-pyrrole-2,5-dione, reference compound]
- HR repair efficiency ([2]; 20 μM): inhibition of HR
- SSA efficiency ([3]; 20 μM): stimulation of SSA

Structure (SMILES): O=C1C(I)=C(N2CCOCC2)C(=O)N1c1ccc(Cl)c(Cl)c1 [Compound 9b, 1-(3,4-Dichlorophenyl)-3-iodo-4-morpholino-1H-pyrrole-2,5-dione]
- reaction with glutathione [1]: no detectable compound at the first time point measured

- RAD51 inhibitory activity (ssDNA binding), relative (human RAD51 protein [4]; FIG. 6A): intermediate to RI-1 and RI-2
Structure (SMILES): COc1ccc(C2=C(SCCN(C)C)C(=O)N(c3ccc(Cl)c(Cl)c3)C2=O)cc1 [MMP-1-60, 1-(3,4-dichlorophenyl)-3-((2-(dimethylamino)ethyl)thio)-4-(4-methoxyphenyl)-1H-pyrrole-2,5-dione]
- cell toxicity with vs. without pre-incubation (stability) (immortalized human cells): comparable cell toxicity
